{
  "source": "paper PMC9822287",
  "about": "“The Fate and Intermediary Metabolism of Soyasapogenol in the Rat” (Molecules, 2022)",
  "key": {"[1]": {"assay": "Pharmacokinetics of oral administration in rats (plasma)", "type": "in vivo", "conditions": "rat; for concentration at 1 h / bioavailability / AUC(0-inf) / AUC(0-t) / CL/F / half-life / Cmax / Tmax: plasma; for concentration at 1 h: 1.0 h postadministration; for bioavailability: oral AUC(0-∞)/intravenous AUC(0-∞), read-out: Bioavailability (F); for AUC(0-t): mean n = 6; for CL/F: read-out: CLz/F (clearance) (converted); for half-life: read-out: T1/2z (biological half-life) (converted); for Cmax / Tmax: po; for Ratio of B/A in plasma level (AUC): ratio of soyasapogenol B to soyasapogenol A in plasma", "experimental": "The experiments were performed according to Kamo et al. The rats were divided into three groups (n = 8). All rats were fasted for 14–15 h prior to soyasapogenol A or B administration. All rats were orally administered soyasapogenol A or B via direct stomach intubation.\nBlood samples were collected from the tail vein at 0 (pre-dose), 0.25, 0.5, 1, 2, 4, 6, 8, and 24 h after administration. The sample volume was 200 μL. The samples were immediately transferred to a centrifuge tube and treated with a sodium citrate anticoagulant. This fraction was then centrifuged at 10,000 rpm for 10 min, and the upper plasma was collected and placed in a refrigerator at −80 °C for later use.\n(§1) The soyasapogenol concentrations in the rat plasma solutions were determined according to the method published in [5]. At first, the plasma samples were thawed to 4 °C and transferred (20 to 100 μL) to an Eppendorf tube. After adding the same volume of 0.2 mol/L sodium acetate buffer to each sample, 3 µL aliquots of glucuronidase (Sigma; extracted from Helix pomatia, containing 95,600 units/mL glucuronidase and 1100 units/mL sulfatase) were added to analyze the glucuronyl- and sulfatide-conjugated forms of the soyasapogenols, and the mixture was incubated at 37 °C for 12 h. The samples were mixed thoroughly, and then they were centrifuged at 10,000 rpm for 15 min. The supernatant was blown with nitrogen gas until it was dry, and residual supernatant was dissolved with 1 mL methanol. Subsequently, after filtration, the samples were analyzed according to the method published in [5].\nThe bioavailability parameters were calculated by comparing AUCoral postadministration with AUCiv post-soyasapogenol I.V. injection:%Bioavailability = [(AUCoral) × Doseiv/(AUCiv) × Doseoral] × 100\nThe calculation formula is as follows: F = oral administration AUC(0-∞)/intravenous injection AUC(0-∞)."}, "[2]": {"assay": "Pharmacokinetics of intravenous injection in rats (plasma)", "type": "in vivo", "conditions": "rat, intravenous (I.V.); for AUC(0-inf) / Cmax / Tmax / AUC(0-t) / half-life: plasma; for AUC(0-t): mean n = 6; for half-life: iv, read-out: T1/2z (half-life) (converted)", "experimental": "The rats’ dorsal foot veins were cannulated with a standard syringe needle to administer the soyasapogenol. As presented in Table 5, the dosages of soyasapogenol A were 10 mg/kg and 20 mg/kg, and the dosages of soyasapogenol B were 25 mg/kg and 50 mg/kg. Blood samples were collected from the tail vein just prior to soyasapogenol administration (0 h) and 0.03, 0.08, 0.25, 0.5, 1, 2, 4, 6, 8, and 24 h after soyasapogenol loading; blood soyasapogenol levels were measured immediately. The collected blood sample volume was approximately 200 μL, and the samples were subjected to the same sample pretreatment procedure as described below.\nas §1"}, "[3]": {"test_system": "Caco-2 cell monolayer", "design": "method as in PMID 24698352", "conditions": "cited from earlier work"}},
  "note": "Where two headings read alike, the source gives them in different places.",
  "data": [
    {"smiles": "CC1(C)C[C@H]2C3=CC[C@@H]4[C@@]5(C)CC[C@H](O)[C@](C)(CO)[C@@H]5CC[C@@]4(C)[C@]3(C)CC[C@@]2(C)[C@H](O)[C@@H]1O", "note": "[Soyasapogenol A]", "values": [
      {"measurement": "concentration at 1 h", "setting": "[1]; oral, 10 mg/kg by gavage", "result": "29000 ± 10000", "unit": "ng/mL"},
      {"measurement": "concentration at 1 h", "setting": "[1]; oral, 20 mg/kg by gavage", "result": "7000 ± 6000", "unit": "ng/mL"},
      {"measurement": "bioavailability", "setting": "[1]; 10 mg/kg", "result": 73.1, "unit": "%"},
      {"measurement": "bioavailability", "setting": "[1]; 20 mg/kg", "result": 67.3, "unit": "%"},
      {"measurement": "AUC(0-inf)", "setting": "[1]; oral (P.O.), 10 mg/kg", "result": 50.7, "unit": "µg·h/mL"},
      {"measurement": "AUC(0-t)", "setting": "[1]; oral (P.O.), 10 mg/kg", "result": 35.2, "unit": "µg·h/mL"},
      {"measurement": "CL/F", "setting": "[1]; oral (P.O.), 10 mg/kg", "result": 6.57, "unit": "mL/min/kg"},
      {"measurement": "half-life", "setting": "[1]; oral (P.O.), 10 mg/kg", "result": 2.55, "unit": "h"},
      {"measurement": "AUC(0-inf)", "setting": "[1]; oral (P.O.), 20 mg/kg", "result": 95.5, "unit": "µg·h/mL"},
      {"measurement": "AUC(0-t)", "setting": "[1]; oral (P.O.), 20 mg/kg", "result": 88.6, "unit": "µg·h/mL"},
      {"measurement": "CL/F", "setting": "[1]; oral (P.O.), 20 mg/kg", "result": 3.48, "unit": "mL/min/kg"},
      {"measurement": "half-life", "setting": "[1]; oral (P.O.), 20 mg/kg", "result": 1.97, "unit": "h"},
      {"measurement": "Cmax", "setting": "[1]; 10 mg/kg, oral (P.O.), 10 mg/kg, read-out: Cmax (peak concentration)", "result": 8590, "unit": "ng/mL"},
      {"measurement": "Tmax", "setting": "[1]; 10 mg/kg, oral (P.O.), 10 mg/kg, read-out: Tmax (peak time)", "result": 2, "unit": "h"},
      {"measurement": "Cmax", "setting": "[1]; 10 mg/kg, oral, at 1.0 h postadministration, printed as the 10 mg/kg dose (second mention), read-out: Cmax", "result": 29000, "unit": "ng/mL"},
      {"measurement": "Tmax", "setting": "[1]; 10 mg/kg, oral, printed as the 10 mg/kg dose (second mention), read-out: time of maximum plasma concentration", "result": 1, "unit": "h"},
      {"measurement": "Cmax", "setting": "[1]; 20 mg/kg, oral (P.O.), 20 mg/kg, read-out: Cmax (peak concentration)", "result": 29000, "unit": "ng/mL"},
      {"measurement": "Tmax", "setting": "[1]; 20 mg/kg, oral (P.O.), 20 mg/kg, read-out: Tmax (peak time)", "result": 1, "unit": "h"},
      {"measurement": "AUC(0-inf)", "setting": "[2]; 10 mg/kg", "result": 69.4, "unit": "µg·h/mL"},
      {"measurement": "Cmax", "setting": "[2]; 10 mg/kg", "result": 31700, "unit": "ng/mL"},
      {"measurement": "Tmax", "setting": "[2]; 10 mg/kg", "result": 1.8, "unit": "min"},
      {"measurement": "AUC(0-t)", "setting": "[2]; 10 mg/kg", "result": 56, "unit": "µg·h/mL"},
      {"measurement": "AUC(0-inf)", "setting": "[2]; 20 mg/kg", "result": 142, "unit": "µg·h/mL"},
      {"measurement": "Cmax", "setting": "[2]; 20 mg/kg", "result": 102000, "unit": "ng/mL"},
      {"measurement": "Tmax", "setting": "[2]; 20 mg/kg", "result": 1.8, "unit": "min"},
      {"measurement": "AUC(0-t)", "setting": "[2]; 20 mg/kg", "result": 114, "unit": "µg·h/mL"},
      {"measurement": "CLz/F", "setting": "[2]; 10 mg/kg", "result": 4.8, "unit": "mL/min/kg"},
      {"measurement": "T1/2z (half-life)", "setting": "[2]; 10 mg/kg", "result": 3.535, "unit": "h"},
      {"measurement": "CLz/F", "setting": "[2]; 20 mg/kg", "result": 2.35, "unit": "mL/min/kg"},
      {"measurement": "T1/2z (half-life)", "setting": "[2]; 20 mg/kg", "result": 3.475, "unit": "h"},
      {"measurement": "half-life", "setting": "[2]; 10 mg/kg, 10 mg/kg", "result": 3.54, "unit": "h"},
      {"measurement": "half-life", "setting": "[2]; 20 mg/kg, 20 mg/kg", "result": 3.48, "unit": "h"}
    ]},
    {"smiles": "CC1(C)C[C@@H](O)[C@]2(C)CC[C@]3(C)C(=CC[C@@H]4[C@@]5(C)CC[C@H](O)[C@](C)(CO)[C@@H]5CC[C@]43C)[C@@H]2C1", "note": "[Soyasapogenol B]", "values": [
      {"measurement": "bioavailability", "setting": "[1]; 25 mg/kg", "result": 60.9, "unit": "%"},
      {"measurement": "bioavailability", "setting": "[1]; 50 mg/kg", "result": 69, "unit": "%"},
      {"measurement": "AUC(0-inf)", "setting": "[1]; oral (P.O.), 25 mg/kg", "result": 111, "unit": "µg·h/mL"},
      {"measurement": "AUC(0-t)", "setting": "[1]; oral (P.O.), 25 mg/kg", "result": 96, "unit": "µg·h/mL"},
      {"measurement": "CL/F", "setting": "[1]; oral (P.O.), 25 mg/kg", "result": 3.02, "unit": "mL/min/kg"},
      {"measurement": "half-life", "setting": "[1]; oral (P.O.), 25 mg/kg", "result": 2.29, "unit": "h"},
      {"measurement": "AUC(0-inf)", "setting": "[1]; oral (P.O.), 50 mg/kg", "result": 178, "unit": "µg·h/mL"},
      {"measurement": "AUC(0-t)", "setting": "[1]; oral (P.O.), 50 mg/kg", "result": 157, "unit": "µg·h/mL"},
      {"measurement": "CL/F", "setting": "[1]; oral (P.O.), 50 mg/kg", "result": 1.87, "unit": "mL/min/kg"},
      {"measurement": "half-life", "setting": "[1]; oral (P.O.), 50 mg/kg", "result": 2.27, "unit": "h"},
      {"measurement": "time needed to reach peak concentration", "setting": "[1]; oral administration, dose not stated", "result": 8, "unit": "h"},
      {"measurement": "Ratio of B/A in plasma level (AUC)", "setting": "[1]; oral, soyasapogenol B 25 mg/kg column", "result": 2.17},
      {"measurement": "Ratio of B/A in plasma level (AUC)", "setting": "[1]; oral, soyasapogenol B 50 mg/kg column", "result": 1.87},
      {"measurement": "Cmax", "setting": "[1]; 25 mg/kg, oral (P.O.), 25 mg/kg, read-out: Cmax (peak concentration)", "result": 26400, "unit": "ng/mL"},
      {"measurement": "Tmax", "setting": "[1]; 25 mg/kg, oral (P.O.), 25 mg/kg, read-out: Tmax (peak time)", "result": 2, "unit": "h"},
      {"measurement": "Cmax", "setting": "[1]; 50 mg/kg, oral (P.O.), 50 mg/kg, read-out: Cmax (peak concentration)", "result": 40300, "unit": "ng/mL"},
      {"measurement": "Tmax", "setting": "[1]; 50 mg/kg, oral (P.O.), 50 mg/kg, read-out: Tmax (peak time)", "result": 2, "unit": "h"},
      {"measurement": "Tmax", "setting": "[1]; oral administration, dose not distinguished, read-out: Tmax", "result": 2, "unit": "h"},
      {"measurement": "amount (%) that permeates into the basolateral side from the apical side", "setting": "[3]", "result": "much higher than that of soyasapogenol A"},
      {"measurement": "AUC(0-inf)", "setting": "[2]; 25 mg/kg", "result": 181, "unit": "µg·h/mL"},
      {"measurement": "Cmax", "setting": "[2]; 25 mg/kg", "result": 43300, "unit": "ng/mL"},
      {"measurement": "Tmax", "setting": "[2]; 25 mg/kg", "result": 1.8, "unit": "min"},
      {"measurement": "AUC(0-t)", "setting": "[2]; 25 mg/kg", "result": 76.2, "unit": "µg·h/mL"},
      {"measurement": "AUC(0-inf)", "setting": "[2]; 50 mg/kg", "result": 258, "unit": "µg·h/mL"},
      {"measurement": "Cmax", "setting": "[2]; 50 mg/kg", "result": 66800, "unit": "ng/mL"},
      {"measurement": "Tmax", "setting": "[2]; 50 mg/kg", "result": 1.8, "unit": "min"},
      {"measurement": "AUC(0-t)", "setting": "[2]; 50 mg/kg", "result": 154, "unit": "µg·h/mL"},
      {"measurement": "CLz/F", "setting": "[2]; 25 mg/kg", "result": 4.1, "unit": "mL/min/kg"},
      {"measurement": "T1/2z (half-life)", "setting": "[2]; 25 mg/kg", "result": 5.138, "unit": "h"},
      {"measurement": "CLz/F", "setting": "[2]; 50 mg/kg", "result": 1.28, "unit": "mL/min/kg"},
      {"measurement": "T1/2z (half-life)", "setting": "[2]; 50 mg/kg", "result": 5.528, "unit": "h"},
      {"measurement": "half-life", "setting": "[2]; 25 mg/kg, 25 mg/kg", "result": 5.14, "unit": "h"},
      {"measurement": "half-life", "setting": "[2]; 50 mg/kg, 50 mg/kg", "result": 5.53, "unit": "h"}
    ]}
  ]
}
